{"source": "patent US20220112479A1", "about": "“COMPOUNDS STABILIZING AMYLASES IN LIQUIDS” (BASF SE, priority 2018, published 2022)", "format_in_all_cases": "biochemical", "key": {"Savinase Ultra 16.0L": {"target": "T1, Savinase Ultra 16.0L (Lederbergia lenta, UniProt P29600)", "T1 construct": "purchased Sigma-Aldrich", "T1 sequence (P29600 1-269)": "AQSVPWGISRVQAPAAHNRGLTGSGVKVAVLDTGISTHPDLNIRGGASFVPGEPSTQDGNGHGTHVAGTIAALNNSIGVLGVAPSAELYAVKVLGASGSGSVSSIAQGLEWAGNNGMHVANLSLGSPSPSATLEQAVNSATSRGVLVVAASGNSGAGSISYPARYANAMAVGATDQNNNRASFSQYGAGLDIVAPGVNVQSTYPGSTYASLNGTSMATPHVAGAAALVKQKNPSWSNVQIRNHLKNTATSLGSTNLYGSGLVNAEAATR", "assay": "protease storage stability in liquid formulation (Suc-AAPF-pNA substrate)", "details": "storage at 37° C.", "method": "(§1) Base test formulations were manufactured by making base formulations I to V by mixing the components according to Table 1.\nProtease used: (S) Savinase Ultra 16.0L (CAS-No. 9014-01-1, EC-No. 232-752-2) was purchased from Sigma-Aldrich\n(§2) The respective component (a) or comparative compound was added, if applicable, to the respective base formulation in amounts as indicated in Table 1.\nThe amount of protease as provided in Table 1 refers to active protein.\n(§3) Water was added to accomplish the balance to 100.\nProtease activity at certain points in time as indicated in Table 3 was be determined by employing Succinyl-Ala-Ala-Pro-Phe-p-nitroanilide (Suc-AAPF-pNA, short AAPF) as substrate. pNA is cleaved from the substrate molecule by proteolytic cleavage, resulting in release of yellow color of free pNA which was determined by measuring […]. Measurements were done at 20° C.\nThe proteolytic activity values provided in Table 3 were calculated referring to the value determined in the reference formulation at the time 0.\nThe nomenclature of formulations is as follows: the Roman number before the full stop characterizes the base formulation, the Arabian number the type of salt (A.#inventive salt (component (a)); B.# comparative compound). Zero (“0”): no salt, but diethylene glycol."}, "Amy1=Stainzyme": {"system": "Amy1=Stainzyme", "assay": "amylase storage stability in liquid formulation (pNP release from Ethyliden-blocked-pNPG7)", "design": "key: % of activity in reference formulation at time 0", "details": "base formulation IV., 2.0 wt % component (a), storage at 37° C.", "method": "(§4) The storage stability of amylase was assessed at 37° C. Base test formulations were manufactured by making base formulations I to V by mixing the components according to Table 1. Amylases used: Amy1=Stainzyme, Amy2=Amplify, Amy3=Stainzyme Plus L (12L) The respective component (a) or comparative compound was added, if applicable, to the respective base formulation in amounts as indicated in Table 1. The amount of amylase as provided in Table 1 refers to active protein. Water was added to accomplish the balance to 100. […] Amylase activity at certain points in time as indicated in Table 2 was measured quantitatively by the release of the chromophore para-nitrophenol (pNP) from the substrate ([…]-blocked-pNPG7, Roche Applied Science 10880078103). The alpha-amylase degrades the substrate into smaller molecules and α-glucosidase (Roche Applied Science 11626329103), which is present in excess compared to the amylase, process these smaller products until pNP is released; the release of pNP, measured via an increase of absorption at 405 nm, is directly proportional to the amylase activity of the sample. Amylase standard: […] 120 L (Sigma 3403). […] The amylolytic activity values provided were calculated referring to the value determined in the reference formulation at the time 0. The nomenclature of formulations is as follows: the Roman number before the full stop characterizes the base formulation, the Arabian number the type of compound (A.# compound according to invention (component (a)); B.# comparative compound)."}, "Amy2=Amplify": {"system": "Amy2=Amplify", "assay": "amylase storage stability in liquid formulation (pNP release from Ethyliden-blocked-pNPG7)", "design": "key: % of activity in reference formulation at time 0", "details": "base formulation V., 2.0 wt % component (a), storage at 37° C.", "method": "as §4"}, "[1]": {"system": "Amy3=Stainzyme Plus L (12L)", "assay": "amylase storage stability in liquid formulation (pNP release from Ethyliden-blocked-pNPG7)", "details": "base formulation II., 1.5 wt % component (a), storage at 37° C.", "method": "The storage stability of amylase was assessed at 37° C.\nas §1\nAmylases used: Amy1=Stainzyme, Amy2=Amplify, Amy3=Stainzyme Plus L (12L)\nas §2\nThe amount of amylase as provided in Table 1 refers to active protein.\nas §3\nAmylase activity at certain points in time as indicated in Table 2 was measured quantitatively by the release of the chromophore para-nitrophenol (pNP) from the substrate (Ethyliden-blocked-pNPG7, Roche Applied Science 10880078103). The alpha-amylase degrades the substrate into smaller molecules and α-glucosidase (Roche Applied Science 11626329103), which is present in excess compared to the amylase, process these smaller products until pNP is released; the release of pNP, measured via an increase of absorption at 405 nm, is directly proportional to the amylase activity of the sample. Amylase standard: Termamyl 120 L (Sigma 3403).\nThe amylolytic activity values provided were calculated referring to the value determined in the reference formulation at the time 0.\nThe nomenclature of formulations is as follows: the Roman number before the full stop characterizes the base formulation, the Arabian number the type of compound (A.# compound according to invention (component (a)); B.# comparative compound)."}}}
{"smiles": "O=C(CC(O)(CC(=O)OCc1ccccc1)C(=O)OCc1ccccc1)OCc1ccccc1", "note": "[A.8, Tribenzylcitrate]", "values": [{"measurement": "protease activity, referring to reference formulation at time 0", "setting": "Savinase Ultra 16.0L; base formulation II., 1.5 wt % component (a), 3 d", "result": 94}, {"measurement": "protease activity, referring to reference formulation at time 0", "setting": "Savinase Ultra 16.0L; base formulation II., 1.5 wt % component (a), 7 d", "result": 93}, {"measurement": "protease activity, referring to reference formulation at time 0", "setting": "Savinase Ultra 16.0L; base formulation II., 1.5 wt % component (a), 14 d", "result": 90}, {"measurement": "protease activity, referring to reference formulation at time 0", "setting": "Savinase Ultra 16.0L; base formulation II., 1.5 wt % component (a), 21 d", "result": 87}, {"measurement": "protease activity, referring to reference formulation at time 0", "setting": "Savinase Ultra 16.0L; base formulation II., 1.5 wt % component (a), 28 d", "result": 83}, {"measurement": "protease activity, referring to reference formulation at time 0", "setting": "Savinase Ultra 16.0L; base formulation II., 1.5 wt % component (a), 42 d", "result": 75}, {"measurement": "protease activity, referring to reference formulation at time 0", "setting": "Savinase Ultra 16.0L; base formulation II., 1.5 wt % component (a), T0", "result": 100}, {"measurement": "protease activity, referring to reference formulation at time 0", "setting": "Savinase Ultra 16.0L; base formulation IV., 2.0 wt % component (a), 3 d", "result": 96}, {"measurement": "protease activity, referring to reference formulation at time 0", "setting": "Savinase Ultra 16.0L; base formulation IV., 2.0 wt % component (a), 7 d", "result": 93}, {"measurement": "protease activity, referring to reference formulation at time 0", "setting": "Savinase Ultra 16.0L; base formulation IV., 2.0 wt % component (a), 14 d", "result": 88}, {"measurement": "protease activity, referring to reference formulation at time 0", "setting": "Savinase Ultra 16.0L; base formulation IV., 2.0 wt % component (a), 21 d", "result": 83}, {"measurement": "protease activity, referring to reference formulation at time 0", "setting": "Savinase Ultra 16.0L; base formulation IV., 2.0 wt % component (a), 28 d", "result": 75}, {"measurement": "protease activity, referring to reference formulation at time 0", "setting": "Savinase Ultra 16.0L; base formulation IV., 2.0 wt % component (a), 42 d", "result": 68}, {"measurement": "protease activity, referring to reference formulation at time 0", "setting": "Savinase Ultra 16.0L; base formulation IV., 2.0 wt % component (a), T0", "result": 98}, {"measurement": "protease activity, referring to reference formulation at time 0", "setting": "Savinase Ultra 16.0L; base formulation V., 2.0 wt % component (a), 3 d", "result": 96}, {"measurement": "protease activity, referring to reference formulation at time 0", "setting": "Savinase Ultra 16.0L; base formulation V., 2.0 wt % component (a), 7 d", "result": 92}, {"measurement": "protease activity, referring to reference formulation at time 0", "setting": "Savinase Ultra 16.0L; base formulation V., 2.0 wt % component (a), 14 d", "result": 86}, {"measurement": "protease activity, referring to reference formulation at time 0", "setting": "Savinase Ultra 16.0L; base formulation V., 2.0 wt % component (a), 21 d", "result": 82}, {"measurement": "protease activity, referring to reference formulation at time 0", "setting": "Savinase Ultra 16.0L; base formulation V., 2.0 wt % component (a), 28 d", "result": 77}, {"measurement": "protease activity, referring to reference formulation at time 0", "setting": "Savinase Ultra 16.0L; base formulation V., 2.0 wt % component (a), 42 d", "result": 69}, {"measurement": "protease activity, referring to reference formulation at time 0", "setting": "Savinase Ultra 16.0L; base formulation V., 2.0 wt % component (a), T0", "result": 100}, {"measurement": "amylase activity, referring to reference formulation at time 0", "setting": "Amy1=Stainzyme; 3 d", "result": 96}, {"measurement": "amylase activity, referring to reference formulation at time 0", "setting": "Amy1=Stainzyme; 7 d", "result": 92}, {"measurement": "amylase activity, referring to reference formulation at time 0", "setting": "Amy1=Stainzyme; 14 d", "result": 86}, {"measurement": "amylase activity, referring to reference formulation at time 0", "setting": "Amy1=Stainzyme; 21 d", "result": 81}, {"measurement": "amylase activity, referring to reference formulation at time 0", "setting": "Amy1=Stainzyme; 28 d", "result": 70}, {"measurement": "amylase activity, referring to reference formulation at time 0", "setting": "Amy1=Stainzyme; 42 d", "result": 59}, {"measurement": "amylase activity, referring to reference formulation at time 0", "setting": "Amy1=Stainzyme; T0", "result": 98}, {"measurement": "amylase activity, referring to reference formulation at time 0", "setting": "Amy2=Amplify; 3 d", "result": 93}, {"measurement": "amylase activity, referring to reference formulation at time 0", "setting": "Amy2=Amplify; 7 d", "result": 86}, {"measurement": "amylase activity, referring to reference formulation at time 0", "setting": "Amy2=Amplify; 14 d", "result": 80}, {"measurement": "amylase activity, referring to reference formulation at time 0", "setting": "Amy2=Amplify; 21 d", "result": 77}, {"measurement": "amylase activity, referring to reference formulation at time 0", "setting": "Amy2=Amplify; 28 d", "result": 66}, {"measurement": "amylase activity, referring to reference formulation at time 0", "setting": "Amy2=Amplify; 42 d", "result": 59}, {"measurement": "amylase activity, referring to reference formulation at time 0", "setting": "Amy2=Amplify; T0", "result": 98}, {"measurement": "amylase activity, referring to reference formulation at time 0", "setting": "[1]; 3 d", "result": 100}, {"measurement": "amylase activity, referring to reference formulation at time 0", "setting": "[1]; 7 d", "result": 95}, {"measurement": "amylase activity, referring to reference formulation at time 0", "setting": "[1]; 14 d", "result": 90}, {"measurement": "amylase activity, referring to reference formulation at time 0", "setting": "[1]; 21 d", "result": 83}, {"measurement": "amylase activity, referring to reference formulation at time 0", "setting": "[1]; 28 d", "result": 81}, {"measurement": "amylase activity, referring to reference formulation at time 0", "setting": "[1]; 42 d", "result": 71}, {"measurement": "amylase activity, referring to reference formulation at time 0", "setting": "[1]; T0", "result": 99}]}
